Patent publication US20170008888A1 (KYORIN PHARMACEUTICAL CO., LTD., priority 2014, published 2017)

System: DNFB-induced ear inflammation mouse model
Test: DNFB-induced ear inflammation mouse model: cytokine concentrations in ear tissue
Assay type: in vivo, mouse (Balb/c)
Procedure: In vivo T-cell mediated immune response was examined in a mouse model of CHS using the hapten dinitrofluorobenzene (DNFB) as the induction agent. […] On Days 0 and 1 (sensitization), 20 μL of 0.5% v/v DNFB in acetone:olive oil (4:1) was applied to each hindpaw of 8 week old male mice (Balb/c, Charles River Laboratories; 10 mice per group unless otherwise noted). On Day 5 (elicitation) 10 μL of 0.2% v/v DNFB in acetone: olive oil (4:1) was applied to the dorsal surface of the right ear of each animal; 10 μL of acetone: olive oil (4:1) was applied to the dorsal surface of the left ear as control. Treatments were administered by group as indicated in the table below; on days when DNFB was used, the QD and the morning dose of BID as appropriate were administered 30 minutes-1 hr. prior to DNFB application. […] Approximately 24 hours after elicitation (Day 6), a 7 mm tissue punch from the central portion of both ears was collected and wet weights measured. The primary functional assessment was the difference in wet weights of the right (DNFB) vs. left (vehicle) ears compared to the vehicle treatment (Vehicle1-S) as an indicator of inflammation (Table 17). Ear tissue punches were flash frozen, stored at −70° C. and analyzed for cytokines (see below).
Cytokine concentrations after DNFB induction and treatment were analyzed in the weighed and flash frozen tissues of the right (DNFB) and left (control) 7 mm ear punches. The ear tissues were stored at −70° C. until prepared for analysis as follows. Left or right ear tissues from the same treatment group were pooled and crushed with mortar and pestle under liquid nitrogen. Tissue representing 7-8 ear punches by weight was homogenized in Buffer A (50 mM HEPES pH 7.4, 100 mM NaCl) containing 1 tablet EDTA-free Protease Inhibitor (Thermo Fisher Scientific, Rockford, Ill.) per 10 mL, 1× Phosphatase Inhibitor Cocktail II (AG Scientific, San Diego, Calif.), and 1 mM PMSF (Sigma, St. Louis, Mo.). Homogenization was performed in Lysing Matrix D tubes (MP Biomedicals, Solon, Ohio), using the FastPrep-24 instrument (MP Biomedicals) at a speed setting of 6 for 4 cycles of 30 seconds, with cooling on ice in between cycles. The tubes were then centrifuged at 1,000×g for 10 min at 4° C. Supernatant was collected and briefly sonicated using the Microson probe sonicator at setting 3 (Misonix, Farmingdale, N.Y.) before centrifuging again at 10,000×g for 10 min at 4° C. The supernatant was ultracentrifuged at 100,000×g for 1 h at 4° C. in the Optima Max-E (Beckman Coulter, Indianapolis, Ind.) to separate soluble and membrane protein fractions. The soluble (supernatant) fraction was collected and protein concentrations determined using the Dc protein kit (Bio-Rad, Hercules, Calif.). Soluble ear proteins were analyzed in triplicate for cytokine response at a final protein concentration of 4 mg/ml using the Bio-Plex Pro Mouse Cytokine 23-Plex panel (Bio-Rad) as per manufacturer's protocols. Magnetic beads were read on the Bio-Plex MAGPIX multiplex reader instrument using the accompanying xPONENT 4.2 acquisition software (Bio-Rad Laboratories, Hercules, Calif.). Data were analyzed via the Bio-Plex Manager software v6.1 (Bio-Rad Laboratories). Response was calculated as a percentage of the cytokine concentrations measured in the right (DNFB) ears of vehicle 1 dosed (S regimen, i.e. dosed Day 0-5) mice (Table 18).

CCOc1cc(C(=O)N2CCCN(C)CC2)ccc1Nc1cc2c(cn1)N(C)C(=O)c1ccccc1N2C [Compound 8]
G-CSF: Mean % Cytokine Concentration in DNFB Treated Right Ears versus Vehicle 1-Dosed (S) Mice (25 mg/kg, regimen E): 68% | GM-CSF: Mean % Cytokine Concentration in DNFB Treated Right Ears versus Vehicle 1-Dosed (S) Mice (25 mg/kg, regimen E): 40% | IFN-γ: Mean % Cytokine Concentration in DNFB Treated Right Ears versus Vehicle 1-Dosed (S) Mice (25 mg/kg, regimen E): 52% | IL-1α: Mean % Cytokine Concentration in DNFB Treated Right Ears versus Vehicle 1-Dosed (S) Mice (25 mg/kg, regimen E): 88% | IL-1β: Mean % Cytokine Concentration in DNFB Treated Right Ears versus Vehicle 1-Dosed (S) Mice (25 mg/kg, regimen E): 56% | IL-3: Mean % Cytokine Concentration in DNFB Treated Right Ears versus Vehicle 1-Dosed (S) Mice (25 mg/kg, regimen E): 67% | IL-5: Mean % Cytokine Concentration in DNFB Treated Right Ears versus Vehicle 1-Dosed (S) Mice (25 mg/kg, regimen E): 37% | IL-6: Mean % Cytokine Concentration in DNFB Treated Right Ears versus Vehicle 1-Dosed (S) Mice (25 mg/kg, regimen E): 58% | IL-12 (p40): Mean % Cytokine Concentration in DNFB Treated Right Ears versus Vehicle 1-Dosed (S) Mice (25 mg/kg, regimen E): 79% | IL-13: Mean % Cytokine Concentration in DNFB Treated Right Ears versus Vehicle 1-Dosed (S) Mice (25 mg/kg, regimen E): 74% | IL-17A: Mean % Cytokine Concentration in DNFB Treated Right Ears versus Vehicle 1-Dosed (S) Mice (25 mg/kg, regimen E): 69% | KC: Mean % Cytokine Concentration in DNFB Treated Right Ears versus Vehicle 1-Dosed (S) Mice (25 mg/kg, regimen E): 39% | MCP-1: Mean % Cytokine Concentration in DNFB Treated Right Ears versus Vehicle 1-Dosed (S) Mice (25 mg/kg, regimen E): 44% | MIP-1α: Mean % Cytokine Concentration in DNFB Treated Right Ears versus Vehicle 1-Dosed (S) Mice (25 mg/kg, regimen E): 62% | MIP-1β: Mean % Cytokine Concentration in DNFB Treated Right Ears versus Vehicle 1-Dosed (S) Mice (25 mg/kg, regimen E): 60% | RANTES: Mean % Cytokine Concentration in DNFB Treated Right Ears versus Vehicle 1-Dosed (S) Mice (25 mg/kg, regimen E): 66% | TNF-α: Mean % Cytokine Concentration in DNFB Treated Right Ears versus Vehicle 1-Dosed (S) Mice (25 mg/kg, regimen E): 53% | G-CSF: Mean % Cytokine Concentration in DNFB Treated Right Ears versus Vehicle 1-Dosed (S) Mice (60 mg/kg, regimen E): 50% | GM-CSF: Mean % Cytokine Concentration in DNFB Treated Right Ears versus Vehicle 1-Dosed (S) Mice (60 mg/kg, regimen E): 48% | IFN-γ: Mean % Cytokine Concentration in DNFB Treated Right Ears versus Vehicle 1-Dosed (S) Mice (60 mg/kg, regimen E): 58% | IL-1α: Mean % Cytokine Concentration in DNFB Treated Right Ears versus Vehicle 1-Dosed (S) Mice (60 mg/kg, regimen E): 188% | IL-1β: Mean % Cytokine Concentration in DNFB Treated Right Ears versus Vehicle 1-Dosed (S) Mice (60 mg/kg, regimen E): 62% | IL-3: Mean % Cytokine Concentration in DNFB Treated Right Ears versus Vehicle 1-Dosed (S) Mice (60 mg/kg, regimen E): 77% | IL-5: Mean % Cytokine Concentration in DNFB Treated Right Ears versus Vehicle 1-Dosed (S) Mice (60 mg/kg, regimen E): 57% | IL-6: Mean % Cytokine Concentration in DNFB Treated Right Ears versus Vehicle 1-Dosed (S) Mice (60 mg/kg, regimen E): 61% | IL-12 (p40): Mean % Cytokine Concentration in DNFB Treated Right Ears versus Vehicle 1-Dosed (S) Mice (60 mg/kg, regimen E): 88% | IL-13: Mean % Cytokine Concentration in DNFB Treated Right Ears versus Vehicle 1-Dosed (S) Mice (60 mg/kg, regimen E): 85% | IL-17A: Mean % Cytokine Concentration in DNFB Treated Right Ears versus Vehicle 1-Dosed (S) Mice (60 mg/kg, regimen E): 68% | KC: Mean % Cytokine Concentration in DNFB Treated Right Ears versus Vehicle 1-Dosed (S) Mice (60 mg/kg, regimen E): 29% | MCP-1: Mean % Cytokine Concentration in DNFB Treated Right Ears versus Vehicle 1-Dosed (S) Mice (60 mg/kg, regimen E): 47% | MIP-1α: Mean % Cytokine Concentration in DNFB Treated Right Ears versus Vehicle 1-Dosed (S) Mice (60 mg/kg, regimen E): 62% | MIP-1β: Mean % Cytokine Concentration in DNFB Treated Right Ears versus Vehicle 1-Dosed (S) Mice (60 mg/kg, regimen E): 44% | RANTES: Mean % Cytokine Concentration in DNFB Treated Right Ears versus Vehicle 1-Dosed (S) Mice (60 mg/kg, regimen E): 53% | TNF-α: Mean % Cytokine Concentration in DNFB Treated Right Ears versus Vehicle 1-Dosed (S) Mice (60 mg/kg, regimen E): 81% | G-CSF: Mean % Cytokine Concentration in DNFB Treated Right Ears versus Vehicle 1-Dosed (S) Mice (60 mg/kg, regimen S): 36% | GM-CSF: Mean % Cytokine Concentration in DNFB Treated Right Ears versus Vehicle 1-Dosed (S) Mice (60 mg/kg, regimen S): 52% | IFN-γ: Mean % Cytokine Concentration in DNFB Treated Right Ears versus Vehicle 1-Dosed (S) Mice (60 mg/kg, regimen S): 46% | IL-1α: Mean % Cytokine Concentration in DNFB Treated Right Ears versus Vehicle 1-Dosed (S) Mice (60 mg/kg, regimen S): 136% | IL-1β: Mean % Cytokine Concentration in DNFB Treated Right Ears versus Vehicle 1-Dosed (S) Mice (60 mg/kg, regimen S): 52% | IL-3: Mean % Cytokine Concentration in DNFB Treated Right Ears versus Vehicle 1-Dosed (S) Mice (60 mg/kg, regimen S): 61% | IL-5: Mean % Cytokine Concentration in DNFB Treated Right Ears versus Vehicle 1-Dosed (S) Mice (60 mg/kg, regimen S): 37% | IL-6: Mean % Cytokine Concentration in DNFB Treated Right Ears versus Vehicle 1-Dosed (S) Mice (60 mg/kg, regimen S): 32% | IL-12 (p40): Mean % Cytokine Concentration in DNFB Treated Right Ears versus Vehicle 1-Dosed (S) Mice (60 mg/kg, regimen S): 73% | IL-13: Mean % Cytokine Concentration in DNFB Treated Right Ears versus Vehicle 1-Dosed (S) Mice (60 mg/kg, regimen S): 75% | IL-17A: Mean % Cytokine Concentration in DNFB Treated Right Ears versus Vehicle 1-Dosed (S) Mice (60 mg/kg, regimen S): 38% | KC: Mean % Cytokine Concentration in DNFB Treated Right Ears versus Vehicle 1-Dosed (S) Mice (60 mg/kg, regimen S): 35% | MCP-1: Mean % Cytokine Concentration in DNFB Treated Right Ears versus Vehicle 1-Dosed (S) Mice (60 mg/kg, regimen S): 43% | MIP-1α: Mean % Cytokine Concentration in DNFB Treated Right Ears versus Vehicle 1-Dosed (S) Mice (60 mg/kg, regimen S): 57% | MIP-1β: Mean % Cytokine Concentration in DNFB Treated Right Ears versus Vehicle 1-Dosed (S) Mice (60 mg/kg, regimen S): 52% | RANTES: Mean % Cytokine Concentration in DNFB Treated Right Ears versus Vehicle 1-Dosed (S) Mice (60 mg/kg, regimen S): 51% | TNF-α: Mean % Cytokine Concentration in DNFB Treated Right Ears versus Vehicle 1-Dosed (S) Mice (60 mg/kg, regimen S): 65%
